# Experimental data reported in patent EP0392976A1, “Monoclonal antibodies to tetracyclic compounds, processes for their production, and applications” (CIBA-GEIGY AG, priority 1989, dated 1990).
# Counter-ions that a name gives are not always drawn. Like-named read-outs stand apart in the source and are kept apart here.
# How the values were obtained:
# Experiment in all cases: inhibition enzyme immunoassay: inhibition of MAb binding to surface bound R-(-)-oxaprotiline-mucin conjugate
# Parameters in all cases: species or system mouse
# MAb 1219S59.11 = conditions: for IC50: read-out: IC₅₀
# Experimental: (§1) The affinities of the monoclonal antibodies of the invention to R-(-)-oxaprotiline can for example be determined in an inhibition enzyme immunoassay according to Friguet et al. (J. Immunol. Methods 77, 305, 1985) wherein the monoclonal antibody to be tested is preincubated with R-(-)-oxaprotiline and, in a second step, exposed to a solid phase coated with an adsorbable conjugate of R-(-)-oxaprotiline, e.g. a protein conjugate. The fraction of the monoclonal antibody not engaged in immunocomplexes binds to the solid phase and is quantified by a secondary antibody-enzyme conjugate directed against the monoclonal antibody. The affinities are expressed as IC₅₀ (inhibition concentration) values, i.e. the concentration of free antigen causing a 50 % inhibition of antibody binding to the solid phase antigen.
# (§2) This can be done, for example, in an inhibition enzyme immunoassay wherein the monoclonal antibodies of the invention are preincubated with any of the soluble compounds listed above and the incubation mixture is then tested in the enzyme immunoassay described above.
# (§3) The conjugate solution (0.66 mg/ml) is diluted 1000-fold in coating buffer pH 9.8 (477 mg sodium carbonate, 897 mg sodium hydrogen carbonate, 60 mg sodium azide, 300 ml distilled water) and incubated in the wells of a microtitre plate for 2 days at 4°C. The wells are washed three times with PBS containing Tween 20 (Sigma, 0.1 %). Residual adsorption sites on the plate are saturated by incubation with 100 µl of PBS/Tween 20 for 1 h. 100 µl of a solution to be tested for the presence of antibodies to R-(-)-oxaprotiline are incubated in the wells for 1 h at room temperature. After washing three times with PBS/Tween 20, an alkaline phosphatase conjugated anti-mouse IgG antiserum (Sigma) is added in a 1000-fold dilution for 1 h at 37°C. The microtitre plate is washed five times with PBS/Tween 20, and the enzyme-conjugated bound antiserum developed with an alkaline phosphatase substrate consisting of disodium p-nitrophenylphosphate (1 mg/ml; Sigma) in diethanolamine buffer pH 9.8. The substrate gives a yellow coloration which is measured with a colorimeter (Titertek Multiskan) at a wave length of 405 nm after 60 min.
# (§4) The assay is carried out as described in the following.
# (§5) The capacity of free R-(-)-oxaprotiline and of a number of compounds which are structurally analogous to R-(-)-oxaprotiline to inhibit the binding of the monoclonal antibodies of the invention to the antigen is determined in an inhibition enzyme immunoassay essentially as described in example 3.2. The MAbs are preincubated with free R-(-)-oxaprotiline and with various structural analogues, respectively, instead of with the test compounds of example 3.2.
# MAb 1219S78.6 = conditions: for IC50: read-out: IC₅₀
# Experimental: as §1, §2, §3, §4, §5
# MAb 1225S93.2 = conditions: for IC50: read-out: IC₅₀
# Experimental: as §1, §2, §3, §4, §5
# MAb 1228P63.1 = conditions: for IC50: read-out: IC₅₀
# Experimental: as §1, §2, §3, §4, §5
# MAb 1226S31.3 = system: MAb 1226S31.3
# Experimental: as §1, §2, §3
# The capacity of a number of therapeutic drugs some of which are used in combination with antidepressants and of biogenic amines to inhibit the binding of the monoclonal antibodies of the invention to the antigen is determined in a two-step inhibition enzyme immunoassay to establish the selectivity of the monoclonal antibodies to the tested compounds.
# as §4, §5
# [1] = Mab 1226S31.3, therapeutic drugs and biogenic amines, 1 µM-150 pM, preincubated overnight, read-out: IC50
# [2] = MAb 1219S59.11, derived from IC50, compound 1 = 1
# [3] = MAb 1225S93.2, derived from IC50, compound 1 = 1
# [4] = MAb 1228P63.1, derived from IC50, compound 1 = 1
IC50 (MAb 1226S31.3; [1]),rel. affinity (MAb 1219S59.11; [2]),Compound,rel. affinity (MAb 1219S59.11),IC50 (MAb 1219S59.11; MAb 1219S59.11),IC50 relative to reference compound (fold) (MAb 1219S78.6),IC50 (MAb 1219S78.6; MAb 1219S78.6),rel. affinity (MAb 1225S93.2),IC50 (MAb 1225S93.2; MAb 1225S93.2),rel. affinity (MAb 1228P63.1),IC50 (MAb 1228P63.1; MAb 1228P63.1),rel. affinity (MAb 1226S31.3),"IC50 (MAb 1226S31.3; MAb 1226S31.3, read-out: IC₅₀)",rel. affinity (MAb 1225S93.2; [3]),rel. affinity (MAb 1228P63.1; [4]),IC50 relative to reference compound (higher = weaker binding) (MAb 1219S59.11; [2]),"IC50 relative to reference compound (fold) (MAb 1219S78.6; MAb 1219S78.6, derived from IC50, compound 1 = 1)","rel. affinity (MAb 1226S31.3; MAb 1226S31.3, derived from IC50, compound 1 = 1)"
–,–,"NCC(O)CC12CCC(c3ccccc31)c1ccccc12 (stereo not shown) [compound 7, 1-(3-amino-2-hydroxy-propyl)-dibenzo[b,e]-bicyclo[2.2.2]-octadiene-hydro-chloride]",368.9,107 nM,249.2,76 nM,2.0,0.75 nM,2.2,1.65 nM,0.4,2.38 nM,–,–,–,–,–
–,–,"CNC[C@@H](CC12CCC(c3ccccc31)c1ccccc12)O[C@@H]1O[C@H](C(=O)O)[C@@H](O)[C@H](O)[C@H]1O [compound 4, R-(-)-1-(2-glucuronyl-3-methylamino-propyl)-dibenzo[b,e]bicyclo-[2.2.2]octadiene]",244.8,71 nM,229.5,70 nM,245.9,91 nM,68.0,51 nM,4.1,27.5 nM,–,–,–,–,–
–,–,"CNCC(CC12CCC(c3ccccc31)c1ccccc12)OC(C)=O (stereo not shown) [compound 11, 1-(2-acetoxy-3-methyl-amino-propyl)-dibenzo[b,e]bicyclo-[2.2.2]octadiene-hydrochloride-semi-hydrate]",4.5,1.3 nM,3.3,1 nM,1.9,0.715 nM,4.5,3.35 nM,0.5,3.58 nM,–,–,–,–,–
> 1000 nM,–,"CNCC(O)c1ccc(O)c(O)c1 (stereo not shown) [Epinephrin, 4-[1-hydroxy-2-(methyl-amino)-ethyl]-1,2-benzene-diol]",–,–,–,–,–,–,–,–,–,–,–,–,–,–,–
–,8.8,"CNCCCC12CCC(c3ccccc31)c1ccccc12 [compound 6, 1-(3-methylamino-propyl)-dibenzo[b,e]-bicyclo[2.2.2]-octadiene-hydro-chloride]",–,–,–,–,–,–,–,–,–,–,1.2,1.4,–,–,–
–,–,"CNC[C@@H](O)CC12CCC(c3ccccc31)c1ccccc12 [compound 2, S-(+)-1-(2-hydroxy-3-methylamino-propyl)-dibenzo[b,e]bicyclo-[2.2.2]octadiene-hydrochloride]",462.0,134 nM,126.2,38.5 nM,2.3,0.85 nM,6.5,4.9 nM,∼0.6,~4 nM,–,–,–,–,–
–,–,"CN1COC(CC23CCC(c4ccccc42)c2ccccc23)C1 (stereo not shown) [compound 13, 3-methyl-5-(dibenzo-[b,e]bicyclo[2.2.2]-octadienyl-1-methyl)-oxazolidine-methane-sulfonate]",1.9,0.55 nM,1.6,0.48 nM,1.6,0.58 nM,1.6,1.2 nM,0.7,4.45 nM,–,–,–,–,–
> 1000 nM,–,"NCC(O)c1ccc(O)c(O)c1 [L-Norepinephrin, 4-[2-amino-1-hydroxy-ethyl]-1,2-benzenediol]",–,–,–,–,–,–,–,–,–,–,–,–,–,–,–
–,–,CN(C)CC(O)CC12CCC(c3ccccc31)c1ccc(C(F)(F)F)cc12 (stereo not shown) [compound 17],>3448,> 1000 nM,>3279,> 1000 nM,628.4,232 nM,>1667,> 1250 nM,>149,> 1000 nM,–,–,–,–,–
> 1000 nM,–,"NCCc1c[nH]cn1 [Histamine, 1H-imidazole-4-ethane-amine]",–,–,–,–,–,–,–,–,–,–,–,–,–,–,–
–,–,"CN(C)CC(O)CC12CCC(c3ccccc31)c1ccc(Cl)cc12 (stereo not shown) [compound 15, 1-(2-hydroxy-3-dimethylamino-propyl]-10-chlorodibenzo[b,e]-bicyclo[2.2.2]-octadiene-cyclamate]",124.1,36 nM,170.5,52 nM,74.3,27.5 nM,16.7,12.5 nM,7.5,50 nM,–,–,–,–,–
–,–,"CNCC(O)CC12CCC(c3ccccc31)c1ccccc12 (racemic) [compound 3, 1-(2-hydroxy-3-methyl-amino-propyl)-dibenzo-[b,e]bicyclo[2.2.2]-octadiene-hydro-chloride]",2.6,0.75 nM,1.7,0.515 nM,1.3,0.475 nM,2.3,1.72 nM,0.5,3.09 nM,–,–,–,–,–
–,–,CNCC(O)CC12CCC(c3ccccc31)c1ccc(C(F)(F)F)cc12 (stereo not shown) [compound 16],>3448,> 1000 nM,>3279,> 1000 nM,251.4,93 nM,>1667,> 1250 nM,>149,> 1000 nM,–,–,–,–,–
–,–,"CNC[C@H](CC12CCC(c3ccccc31)c1ccccc12)O[C@@H]1O[C@H](C(=O)O)[C@@H](O)[C@H](O)[C@H]1O [compound 5, S-(+)-1-(2-glucuronyl-3-methylamino-propyl)-dibenzo[b,e]bicyclo-[2.2.2]octadiene]",>3448,> 1000 nM,>3279,> 1000 nM,429.7,159 nM,562.7,422 nM,52.7,353 nM,–,–,–,–,–
–,–,"c1ccc2c(c1)C1CCC2(CC2CNCCO2)c2ccccc21 (stereo not shown) [compound 12, 2-(dibenzo[b,e]bicyclo-[2.2.2]octadienyl-1-methyl)-morpholine-hydrochloride]",174.1,50.5 nM,∼49.2,~15 nM,6.4,2.35 nM,3.1,2.35 nM,0.3,2.1 nM,–,–,–,–,–

Compound,IC50 (MAb 1226S31.3; [1]),rel. affinity (MAb 1219S59.11; [2]),rel. affinity (MAb 1219S59.11),IC50 (MAb 1219S59.11; MAb 1219S59.11),IC50 relative to reference compound (fold) (MAb 1219S78.6),IC50 (MAb 1219S78.6; MAb 1219S78.6),rel. affinity (MAb 1225S93.2),IC50 (MAb 1225S93.2; MAb 1225S93.2),rel. affinity (MAb 1228P63.1),IC50 (MAb 1228P63.1; MAb 1228P63.1),rel. affinity (MAb 1226S31.3),"IC50 (MAb 1226S31.3; MAb 1226S31.3, read-out: IC₅₀)",rel. affinity (MAb 1225S93.2; [3]),rel. affinity (MAb 1228P63.1; [4]),IC50 relative to reference compound (higher = weaker binding) (MAb 1219S59.11; [2]),"IC50 relative to reference compound (fold) (MAb 1219S78.6; MAb 1219S78.6, derived from IC50, compound 1 = 1)","rel. affinity (MAb 1226S31.3; MAb 1226S31.3, derived from IC50, compound 1 = 1)"
CNC[C@H](O)CC12CCC(c3ccccc31)c1ccccc12 [compound 1],6.7 nM,–,–,0.29 nM,–,0.305 nM,–,0.37 nM,–,0.75 nM,–,6.7 nM,1,1,1,1,1
